Numbering of substitutions follows the chain as printed.
What was measured:
[1] = target: T1, h5-HT3AR (Homo sapiens, UniProt P46098, S225T); experiment: FLIPR Blue membrane potential assay, inhibition of 5-HT response; assay type: cell-based
T1 sequence (P46098 24-478 S225T): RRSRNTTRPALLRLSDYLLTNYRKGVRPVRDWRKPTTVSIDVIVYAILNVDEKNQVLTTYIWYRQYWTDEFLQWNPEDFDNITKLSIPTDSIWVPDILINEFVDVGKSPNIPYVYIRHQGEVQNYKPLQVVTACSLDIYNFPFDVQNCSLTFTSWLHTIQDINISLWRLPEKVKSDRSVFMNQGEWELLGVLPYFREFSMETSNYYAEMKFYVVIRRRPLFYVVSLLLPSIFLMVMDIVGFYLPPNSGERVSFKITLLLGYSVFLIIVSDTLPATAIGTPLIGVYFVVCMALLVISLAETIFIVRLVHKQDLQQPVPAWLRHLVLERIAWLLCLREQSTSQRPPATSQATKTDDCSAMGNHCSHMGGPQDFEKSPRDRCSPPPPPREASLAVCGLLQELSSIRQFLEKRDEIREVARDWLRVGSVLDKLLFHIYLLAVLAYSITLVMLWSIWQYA

[2] = target: T2, h5-HT3AR (Homo sapiens, UniProt P46098, M204I); experiment: as above; assay type: cell-based
T2 sequence (P46098 24-478 M204I): T1 sequence (P46098 24-478 S225T) with M181I, T202S

[3] = target: T3, h5-HT3AR (Homo sapiens, UniProt P46098, Y228S); experiment: as above; assay type: cell-based
T3 sequence (P46098 24-478 Y228S): T1 sequence (P46098 24-478 S225T) with T202S, Y205S

[4] = target: T4, h5-HT3AR (Homo sapiens, UniProt P46098); experiment: TEVC, Xenopus oocytes, activation; assay type: cell-based
T4 sequence (P46098 24-478): T1 sequence (P46098 24-478 S225T) with T202S

[5] = target: T5, gp5-HT3AR (Cavia porcellus, UniProt O70212); experiment: FLIPR Blue membrane potential assay, inhibition of 5-HT response; assay type: cell-based
T5 sequence (O70212 20-490): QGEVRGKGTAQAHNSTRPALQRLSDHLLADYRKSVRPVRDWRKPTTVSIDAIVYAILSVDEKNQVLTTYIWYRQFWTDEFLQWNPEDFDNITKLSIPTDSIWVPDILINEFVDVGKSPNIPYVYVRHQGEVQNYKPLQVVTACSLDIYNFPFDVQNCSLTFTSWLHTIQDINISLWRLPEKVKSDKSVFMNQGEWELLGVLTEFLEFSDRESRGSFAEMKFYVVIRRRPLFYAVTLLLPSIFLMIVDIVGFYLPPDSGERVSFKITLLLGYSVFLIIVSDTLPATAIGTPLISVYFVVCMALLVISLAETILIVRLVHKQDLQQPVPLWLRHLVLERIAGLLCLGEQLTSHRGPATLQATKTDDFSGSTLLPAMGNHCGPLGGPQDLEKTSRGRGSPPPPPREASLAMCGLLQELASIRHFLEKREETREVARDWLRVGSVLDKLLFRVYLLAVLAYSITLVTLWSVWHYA

[6] = target: T4, h5-HT3AR; experiment: [3H]-GR65630 displacement, HEK-293 membranes; assay type: binding

- IC50 [1]: 58 nM
- IC50 [2]: 73 nM
- IC50 [3]: 84 nM
- EC50 [4]: 150 nM
- IC50 [5]: 2350 nM
- Ki [6]: 24 nM
Structure (SMILES): Cc1ccc(Sc2ccccc2N2CCNCC2)c(C)c1 [vortioxetine]
